Assay results published in ChEMBL document CHEMBL1137193, “Discovery of new chemical leads for prostaglandin D2 receptor antagonists” (Bioorg Med Chem Lett, 2004).

Each molecule was assayed against T1, Prostaglandin D2 receptor (Mus musculus, UniProt P70263) (assay: Binding affinity for mouse Prostanoid DP receptor).
T1 sequence (P70263 whole entry): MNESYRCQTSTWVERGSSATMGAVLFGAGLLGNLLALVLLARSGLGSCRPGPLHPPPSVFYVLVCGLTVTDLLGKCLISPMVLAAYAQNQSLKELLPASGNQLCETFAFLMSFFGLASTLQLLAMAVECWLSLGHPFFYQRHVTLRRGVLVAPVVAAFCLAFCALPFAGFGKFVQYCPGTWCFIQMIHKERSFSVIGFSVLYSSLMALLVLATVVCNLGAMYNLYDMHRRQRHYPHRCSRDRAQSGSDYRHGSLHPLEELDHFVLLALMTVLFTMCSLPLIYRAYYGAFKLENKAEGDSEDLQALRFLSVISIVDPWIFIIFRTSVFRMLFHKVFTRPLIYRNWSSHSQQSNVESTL

First: CCCCOc1ccc(C(=O)n2c(C)c(C(=O)O)c3cc(OC)ccc32)cc1
Second: CCCCOc1ccc(C(=O)n2c(C)c(CC(=O)O)c3cc(OC)ccc32)cc1
The Ki of the first is 3.5-fold higher: 0.94 µM for the first, 0.27 µM for the second. The second binds more tightly here.

First: COc1ccc2c(c1)c(CC(=O)O)c(C)n2C(=O)c1ccc(Cl)cc1 [INDOMETHACIN]
Second: CCCCOc1ccc(C(=O)n2c(C)c(CC(=O)O)c3cc(O)ccc32)cc1
The Ki of the first is higher: greater than 10 µM for the first, 1.9 µM for the second. The second binds more tightly here.

Going from CCCCOc1ccc(C(=O)n2c(CC)c(CC(=O)O)c3cc(OC)ccc32)cc1 to CCCCOc1ccc(C(=O)n2c(C)c(CCC(=O)O)c3cc(OC)ccc32)cc1, the Ki falls from 1.5 µM to 0.28 µM (5.4-fold). The second binds more tightly here.

First: CCCCOc1ccc(C(=O)n2c(C)c(CCCCC(=O)O)c3cc(OC)ccc32)cc1
Second: CCCCOc1ccc(C(=O)n2c(C)c(CCCC(=O)O)c3cc(OC)ccc32)cc1
The Ki of the first is 2.1-fold higher: 0.4 µM for the first, 0.19 µM for the second. The second binds more tightly here.

Compared with CCCCOc1cccc(C(=O)n2c(C)c(CC(=O)O)c3cc(OC)ccc32)c1, CCCCOc1ccccc1C(=O)n1c(C)c(CC(=O)O)c2cc(OC)ccc21 is higher in Ki: 0.41 µM for the first, greater than 10 µM for the second. The first binds more tightly here.

CCCCOc1ccc(C(=O)n2c(C)c(CC(=O)O)c3ccccc32)cc1 and CCCCOc1ccc(C(=O)n2c(C)c(CC(=O)O)c3cc(C)ccc32)cc1 are within 1.5-fold of each other in Ki: 0.11 µM for the first, 0.15 µM for the second.

Molecule CCCCOc1ccc(C(=O)n2cc(CC(=O)O)c3cc(OC)ccc32)cc1 has a Ki of 2.2 µM.

The molecules below were run against T2, Prostaglandin E2 receptor EP1 subtype (Mus musculus, UniProt P35375) (assay: Binding affinity for mouse Prostanoid EP1 receptor).
T2 sequence (P35375 whole entry): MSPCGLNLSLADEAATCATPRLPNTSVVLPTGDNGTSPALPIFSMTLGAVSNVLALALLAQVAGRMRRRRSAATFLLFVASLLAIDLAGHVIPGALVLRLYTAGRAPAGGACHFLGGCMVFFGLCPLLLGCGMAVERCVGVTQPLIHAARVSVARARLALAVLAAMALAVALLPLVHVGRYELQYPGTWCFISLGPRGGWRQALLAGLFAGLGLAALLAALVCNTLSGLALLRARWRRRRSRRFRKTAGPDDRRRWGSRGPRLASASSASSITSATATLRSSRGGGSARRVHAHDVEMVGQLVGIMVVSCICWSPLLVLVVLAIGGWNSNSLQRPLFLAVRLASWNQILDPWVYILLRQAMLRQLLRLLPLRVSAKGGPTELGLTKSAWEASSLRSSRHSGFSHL

CCCCOc1ccc(C(=O)n2c(C)c(C(=O)O)c3cc(OC)ccc32)cc1 and CCCCOc1ccc(C(=O)n2c(C)c(CC(=O)O)c3cc(OC)ccc32)cc1 cannot be ordered by Ki: greater than 10 µM for the first, greater than 10 µM for the second.

COc1ccc2c(c1)c(CC(=O)O)c(C)n2C(=O)c1ccc(Cl)cc1 [INDOMETHACIN] and CCCCOc1ccc(C(=O)n2c(C)c(CC(=O)O)c3cc(O)ccc32)cc1 cannot be ordered by Ki: greater than 10 µM for the first, greater than 10 µM for the second.

Compared with CCCCOc1ccc(C(=O)n2c(CC)c(CC(=O)O)c3cc(OC)ccc32)cc1, CCCCOc1ccc(C(=O)n2c(C)c(CCC(=O)O)c3cc(OC)ccc32)cc1 is higher in Ki: 3.8 µM for the first, greater than 10 µM for the second.

CCCCOc1ccc(C(=O)n2c(C)c(CCCCC(=O)O)c3cc(OC)ccc32)cc1 and CCCCOc1ccc(C(=O)n2c(C)c(CCCC(=O)O)c3cc(OC)ccc32)cc1 cannot be ordered by Ki: greater than 10 µM for the first, greater than 10 µM for the second.

Going from CCCCOc1cccc(C(=O)n2c(C)c(CC(=O)O)c3cc(OC)ccc32)c1 to CCCCOc1ccccc1C(=O)n1c(C)c(CC(=O)O)c2cc(OC)ccc21, the Ki falls from greater than 10 µM to 6.5 µM. The second binds more tightly here.

CCCCOc1ccc(C(=O)n2c(C)c(CC(=O)O)c3ccccc32)cc1 and CCCCOc1ccc(C(=O)n2c(C)c(CC(=O)O)c3cc(C)ccc32)cc1 are within 1.5-fold of each other in Ki: 5.2 µM for the first, 5 µM for the second.

With CCCCOc1ccc(C(=O)n2cc(CC(=O)O)c3cc(OC)ccc32)cc1 the Ki was greater than 10 µM.

Each molecule was assayed against T3, Prostaglandin E2 receptor EP3 subtype (Mus musculus, UniProt P30557) (assay: Binding affinity for mouse Prostanoid EP3 receptor).
T3 sequence (P30557 whole entry): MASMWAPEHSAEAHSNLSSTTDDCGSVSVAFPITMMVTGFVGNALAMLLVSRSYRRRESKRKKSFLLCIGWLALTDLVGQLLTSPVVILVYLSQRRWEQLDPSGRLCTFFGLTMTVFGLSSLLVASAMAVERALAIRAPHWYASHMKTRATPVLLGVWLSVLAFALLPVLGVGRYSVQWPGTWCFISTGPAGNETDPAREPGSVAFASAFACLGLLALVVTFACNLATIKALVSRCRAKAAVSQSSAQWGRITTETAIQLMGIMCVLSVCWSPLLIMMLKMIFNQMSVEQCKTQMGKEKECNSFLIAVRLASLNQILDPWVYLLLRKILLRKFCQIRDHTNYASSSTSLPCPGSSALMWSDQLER

CCCCOc1ccc(C(=O)n2c(C)c(C(=O)O)c3cc(OC)ccc32)cc1 and CCCCOc1ccc(C(=O)n2c(C)c(CC(=O)O)c3cc(OC)ccc32)cc1 cannot be ordered by Ki: greater than 10 µM for the first, greater than 10 µM for the second.

COc1ccc2c(c1)c(CC(=O)O)c(C)n2C(=O)c1ccc(Cl)cc1 [INDOMETHACIN] and CCCCOc1ccc(C(=O)n2c(C)c(CC(=O)O)c3cc(O)ccc32)cc1 cannot be ordered by Ki: greater than 10 µM for the first, greater than 10 µM for the second.

CCCCOc1ccc(C(=O)n2c(CC)c(CC(=O)O)c3cc(OC)ccc32)cc1 and CCCCOc1ccc(C(=O)n2c(C)c(CCC(=O)O)c3cc(OC)ccc32)cc1 cannot be ordered by Ki: greater than 10 µM for the first, greater than 10 µM for the second.

First: CCCCOc1ccc(C(=O)n2c(C)c(CCCCC(=O)O)c3cc(OC)ccc32)cc1
Second: CCCCOc1ccc(C(=O)n2c(C)c(CCCC(=O)O)c3cc(OC)ccc32)cc1
The Ki of the first is higher: greater than 10 µM for the first, 2.4 µM for the second.

CCCCOc1cccc(C(=O)n2c(C)c(CC(=O)O)c3cc(OC)ccc32)c1 and CCCCOc1ccccc1C(=O)n1c(C)c(CC(=O)O)c2cc(OC)ccc21 cannot be ordered by Ki: greater than 10 µM for the first, greater than 10 µM for the second.

CCCCOc1ccc(C(=O)n2c(C)c(CC(=O)O)c3ccccc32)cc1 and CCCCOc1ccc(C(=O)n2c(C)c(CC(=O)O)c3cc(C)ccc32)cc1 cannot be ordered by Ki: greater than 10 µM for the first, greater than 10 µM for the second.

CCCCOc1ccc(C(=O)n2cc(CC(=O)O)c3cc(OC)ccc32)cc1 gave a Ki greater than 10 µM.

The molecules below were run against Prostaglandin E2 receptor EP4 subtype (Mus musculus, UniProt P32240) (assay: Binding affinity for mouse Prostanoid EP4 receptor).
Prostaglandin E2 receptor EP4 subtype, sequence (P32240 whole entry): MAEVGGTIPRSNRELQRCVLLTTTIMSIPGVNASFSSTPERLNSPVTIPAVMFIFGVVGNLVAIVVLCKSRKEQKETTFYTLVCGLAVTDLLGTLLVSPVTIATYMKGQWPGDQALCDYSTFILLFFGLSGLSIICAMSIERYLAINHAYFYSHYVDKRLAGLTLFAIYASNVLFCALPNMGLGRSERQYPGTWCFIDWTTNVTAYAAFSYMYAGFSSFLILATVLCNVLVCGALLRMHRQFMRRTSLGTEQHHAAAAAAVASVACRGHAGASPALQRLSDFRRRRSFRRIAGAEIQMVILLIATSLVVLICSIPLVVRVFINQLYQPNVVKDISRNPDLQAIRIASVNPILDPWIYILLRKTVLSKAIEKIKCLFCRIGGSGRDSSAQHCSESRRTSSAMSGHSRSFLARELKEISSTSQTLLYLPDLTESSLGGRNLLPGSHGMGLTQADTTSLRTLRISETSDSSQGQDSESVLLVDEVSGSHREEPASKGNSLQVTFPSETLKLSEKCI

CCCCOc1ccc(C(=O)n2c(C)c(C(=O)O)c3cc(OC)ccc32)cc1 and CCCCOc1ccc(C(=O)n2c(C)c(CC(=O)O)c3cc(OC)ccc32)cc1 cannot be ordered by Ki: greater than 10 µM for the first, greater than 10 µM for the second.

COc1ccc2c(c1)c(CC(=O)O)c(C)n2C(=O)c1ccc(Cl)cc1 [INDOMETHACIN] and CCCCOc1ccc(C(=O)n2c(C)c(CC(=O)O)c3cc(O)ccc32)cc1 cannot be ordered by Ki: greater than 10 µM for the first, greater than 10 µM for the second.

First: CCCCOc1ccc(C(=O)n2c(CC)c(CC(=O)O)c3cc(OC)ccc32)cc1
Second: CCCCOc1ccc(C(=O)n2c(C)c(CCC(=O)O)c3cc(OC)ccc32)cc1
The Ki of the first is higher: greater than 10 µM for the first, 3 µM for the second.

First: CCCCOc1ccc(C(=O)n2c(C)c(CCCCC(=O)O)c3cc(OC)ccc32)cc1
Second: CCCCOc1ccc(C(=O)n2c(C)c(CCCC(=O)O)c3cc(OC)ccc32)cc1
The Ki of the first is 2.8-fold higher: 4.2 µM for the first, 1.5 µM for the second. The second binds more tightly here.

CCCCOc1cccc(C(=O)n2c(C)c(CC(=O)O)c3cc(OC)ccc32)c1 and CCCCOc1ccccc1C(=O)n1c(C)c(CC(=O)O)c2cc(OC)ccc21 cannot be ordered by Ki: greater than 10 µM for the first, greater than 10 µM for the second.

Compared with CCCCOc1ccc(C(=O)n2c(C)c(CC(=O)O)c3ccccc32)cc1, CCCCOc1ccc(C(=O)n2c(C)c(CC(=O)O)c3cc(C)ccc32)cc1 is lower in Ki: greater than 10 µM for the first, 2.2 µM for the second.

For CCCCOc1ccc(C(=O)n2cc(CC(=O)O)c3cc(OC)ccc32)cc1, the Ki was greater than 10 µM.

These molecules were tested against T1, Prostaglandin D2 receptor (assay: Inhibition of mouse Prostanoid DP receptor).

First: CCCCOc1ccc(C(=O)n2c(C)c(C(=O)O)c3cc(OC)ccc32)cc1
Second: CCCCOc1ccc(C(=O)n2c(C)c(CC(=O)O)c3cc(OC)ccc32)cc1
The IC50 of the first is 2.5-fold higher: 4 µM for the first, 1.6 µM for the second.

COc1ccc2c(c1)c(CC(=O)O)c(C)n2C(=O)c1ccc(Cl)cc1 [INDOMETHACIN] and CCCCOc1ccc(C(=O)n2c(C)c(CC(=O)O)c3cc(O)ccc32)cc1 cannot be ordered by IC50: greater than 10 µM for the first, greater than 10 µM for the second.

Compared with CCCCOc1ccc(C(=O)n2c(C)c(CCCCC(=O)O)c3cc(OC)ccc32)cc1, CCCCOc1ccc(C(=O)n2c(C)c(CCCC(=O)O)c3cc(OC)ccc32)cc1 is 4.9-fold lower in IC50: 4.5 µM for the first, 0.91 µM for the second.

Going from CCCCOc1ccc(C(=O)n2c(C)c(CCC(=O)O)c3cc(OC)ccc32)cc1 to CCCCOc1ccc(C(=O)n2c(C)c(CC(=O)O)c3cc(C)ccc32)cc1, the IC50 rises from 1.5 µM to 2.9 µM (1.9-fold). The first is the more potent here.

Going from CCCCOc1cccc(C(=O)n2c(C)c(CC(=O)O)c3cc(OC)ccc32)c1 to CCCCOc1ccc(C(=O)n2c(C)c(CC(=O)O)c3ccccc32)cc1, the IC50 rises from 2.5 µM to 3.9 µM (1.6-fold).

These molecules were tested against Prostaglandin E2 receptor EP2 subtype (Mus musculus, UniProt Q62053) (assay: Binding affinity for mouse Prostanoid EP2 receptor).
Prostaglandin E2 receptor EP2 subtype, sequence (Q62053 whole entry): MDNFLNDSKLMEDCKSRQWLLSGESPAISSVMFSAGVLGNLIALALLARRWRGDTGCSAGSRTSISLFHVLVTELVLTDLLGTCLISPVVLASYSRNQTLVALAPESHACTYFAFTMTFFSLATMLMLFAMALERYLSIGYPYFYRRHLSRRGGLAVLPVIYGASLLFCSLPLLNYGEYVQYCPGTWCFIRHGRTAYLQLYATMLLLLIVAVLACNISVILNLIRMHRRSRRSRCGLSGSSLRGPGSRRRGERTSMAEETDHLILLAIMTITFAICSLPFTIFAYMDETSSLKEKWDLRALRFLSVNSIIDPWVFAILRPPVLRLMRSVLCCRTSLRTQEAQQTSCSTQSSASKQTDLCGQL

Going from CCCCOc1ccc(C(=O)n2c(C)c(C(=O)O)c3cc(OC)ccc32)cc1 to CCCCOc1ccc(C(=O)n2c(C)c(CC(=O)O)c3cc(OC)ccc32)cc1, the Ki falls from greater than 10 µM to 4.7 µM. The second binds more tightly here.

Going from COc1ccc2c(c1)c(CC(=O)O)c(C)n2C(=O)c1ccc(Cl)cc1 [INDOMETHACIN] to CCCCOc1ccc(C(=O)n2c(C)c(CC(=O)O)c3cc(O)ccc32)cc1, the Ki falls from greater than 10 µM to 3.3 µM.

Compared with CCCCOc1ccc(C(=O)n2c(CC)c(CC(=O)O)c3cc(OC)ccc32)cc1, CCCCOc1ccc(C(=O)n2c(C)c(CCC(=O)O)c3cc(OC)ccc32)cc1 is 2-fold higher in Ki: 2.9 µM for the first, 5.7 µM for the second.

First: CCCCOc1ccc(C(=O)n2c(C)c(CCCCC(=O)O)c3cc(OC)ccc32)cc1
Second: CCCCOc1ccc(C(=O)n2c(C)c(CCCC(=O)O)c3cc(OC)ccc32)cc1
The Ki of the first is 1.9-fold higher: 5.2 µM for the first, 2.7 µM for the second.

Compared with CCCCOc1cccc(C(=O)n2c(C)c(CC(=O)O)c3cc(OC)ccc32)c1, CCCCOc1ccccc1C(=O)n1c(C)c(CC(=O)O)c2cc(OC)ccc21 is higher in Ki: 1.7 µM for the first, greater than 10 µM for the second.

CCCCOc1ccc(C(=O)n2c(C)c(CC(=O)O)c3ccccc32)cc1 and CCCCOc1ccc(C(=O)n2c(C)c(CC(=O)O)c3cc(C)ccc32)cc1 are within 1.5-fold of each other in Ki: 2.1 µM for the first, 1.7 µM for the second.

CCCCOc1ccc(C(=O)n2cc(CC(=O)O)c3cc(OC)ccc32)cc1 showed a Ki of 8.9 µM.
